# From patent US20240358790A1, “COMPOSITIONS AND METHODS FOR TREATING AUTOIMMUNITY, INCLUDING AUTOIMMUNITY ASSOCIATED WITH CANCER AND CANCER THERAPY” (Interk Peptide Therapeutics Limited, priority 2021, published 2024)
# Non-standard residues stand in square brackets, D forms with d. Residues, ends and D or L forms follow the SMILES beside them. No end group written: not given here. ξ: configuration not given here. ξGly(decyl) = CCCCCCCCCCC(N)C(=O)O; 2Adod = 2-aminododecanoic acid
# Tests used:
# IL-2 = IL-2 ELISA, anti-CD3/anti-CD28 stimulated isolated CD3+ T cells; assay type: cell-based, human; settings: 72 hrs
# Lck = Lck (Homo sapiens, UniProt P06239); assay: Lck kinase activity assay ([γ33P-ATP], filtermat); assay type: biochemical
# Chain of Lck (P06239 whole entry): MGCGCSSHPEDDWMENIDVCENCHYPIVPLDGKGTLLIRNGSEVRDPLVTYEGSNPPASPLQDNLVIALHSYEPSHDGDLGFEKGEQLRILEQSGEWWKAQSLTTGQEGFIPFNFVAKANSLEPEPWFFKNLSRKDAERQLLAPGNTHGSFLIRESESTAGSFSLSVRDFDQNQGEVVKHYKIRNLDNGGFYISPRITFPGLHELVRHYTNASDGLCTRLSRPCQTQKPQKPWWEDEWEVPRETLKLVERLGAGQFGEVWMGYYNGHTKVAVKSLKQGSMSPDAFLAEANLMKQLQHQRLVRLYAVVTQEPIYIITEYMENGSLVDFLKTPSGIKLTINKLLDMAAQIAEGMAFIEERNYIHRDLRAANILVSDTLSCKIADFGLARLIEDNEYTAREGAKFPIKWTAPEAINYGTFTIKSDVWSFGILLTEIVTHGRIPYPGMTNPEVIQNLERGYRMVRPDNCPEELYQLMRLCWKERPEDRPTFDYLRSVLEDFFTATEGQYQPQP
# Procedure: Lck is incubated with 50 mM Tris pH 7.5, 0.1 mM EGTA, 0.1 mM Na3VO4, 250 μM KVEKIGEGTYGWYK (Cdc2 peptide), 10 mM Magnesium acetate and [γ33P-ATP] (specific activity approx. 500 cpm/pmol, concentration as required). The reaction is initiated by the addition of the Mg/ATP mix. After incubation for 40 minutes at room temperature, the reaction is stopped by the addition of phosphoric acid to a concentration of 0.5%. 10 μL of the reaction is then spotted onto a P30 filtermat and washed four times for 4 minutes in 0.425% phosphoric acid and once in methanol prior to drying and scintillation counting.”
# c-Src = c-Src (Homo sapiens, UniProt P12931); assay: c-Src kinase activity assay ([γ33P-ATP], filtermat); assay type: biochemical
# Procedure: c-Src, Fyn, Hck is incubated with 8 mM MOPS pH 7.0, 0.2 mM EDTA, 250 μM KVEKIGEGTYGVVYK (Cdc2 peptide), 10 mM MgAcetate and [γ33P-ATP] (specific activity approx. 500 cpm/pmol, concentration as required). The reaction is initiated by the addition of the MgATP mix. After incubation for 40 minutes at room temperature, the reaction is stopped by the addition of 3% phosphoric acid solution. 10 μL of the reaction is then spotted onto a P30 filtermat and washed three times for 5 minutes in 75 mM phosphoric acid and once in methanol prior to drying and scintillation counting.
# [1] = PET-CT uptake of Cu64-labelled NOTA-peptide in lung and blood after SC, IP, oral gavage; assay type: in vivo; settings: 200 ug SC/IP and 1 mg OG, mice
# Procedure: For FIG. 1d, 1,4,7-Triazacyclononane-1,4,7-triacetic acid (NOTA) conjugated peptides were acquired from Auspep, reconstituted in deionised water at 10 mg/mL and used without further purification. Peptides were incubated with ^64Cu at 1000-fold excess of peptide in 0.1 M pH 5.5 ammonium acetate buffer for 45 minutes at 37° C. 1 μL Samples of each solution were taken and mixed 1:1 with 50 mM EDTA. EDTA incubated sample or neat solution was spotted on TLC paper (Agilent iTLC-SG Glass microfiber chromatography paper impregnated with silica gel) and run with 50:50 H2O:ethanol. Detection of radiolabelled species migration was then achieved by imaging on a Bruker In Vivo MS FX Pro imaging system using a radioisotopic phosphor screen. Control experiments were conducted to monitor the elution profile of free ^64Cu and ^64Cu bound to EDTA for quality control. […]
# The PET Images were reconstructed using an ordered-subset expectation maximization (OSEM2D) algorithm and analysed using the Inveon Research Workplace software (IRW 4.1) (Siemens) which allows fusion of CT and PET images and definition of regions of interest (ROIs). […] Activity concentrations were then expressed as percent of the decay-corrected injected activity per cm^3 of tissue that can be approximate as percentage injected dose/g (% ID/g). […]
# MAP4K1 (HPK1) = MAP4K1 (HPK1) (Homo sapiens, UniProt Q92918); assay: MAP4K1 (HPK1) kinase activity; assay type: biochemical
# Chain of MAP4K1 (HPK1) (Q92918 whole entry): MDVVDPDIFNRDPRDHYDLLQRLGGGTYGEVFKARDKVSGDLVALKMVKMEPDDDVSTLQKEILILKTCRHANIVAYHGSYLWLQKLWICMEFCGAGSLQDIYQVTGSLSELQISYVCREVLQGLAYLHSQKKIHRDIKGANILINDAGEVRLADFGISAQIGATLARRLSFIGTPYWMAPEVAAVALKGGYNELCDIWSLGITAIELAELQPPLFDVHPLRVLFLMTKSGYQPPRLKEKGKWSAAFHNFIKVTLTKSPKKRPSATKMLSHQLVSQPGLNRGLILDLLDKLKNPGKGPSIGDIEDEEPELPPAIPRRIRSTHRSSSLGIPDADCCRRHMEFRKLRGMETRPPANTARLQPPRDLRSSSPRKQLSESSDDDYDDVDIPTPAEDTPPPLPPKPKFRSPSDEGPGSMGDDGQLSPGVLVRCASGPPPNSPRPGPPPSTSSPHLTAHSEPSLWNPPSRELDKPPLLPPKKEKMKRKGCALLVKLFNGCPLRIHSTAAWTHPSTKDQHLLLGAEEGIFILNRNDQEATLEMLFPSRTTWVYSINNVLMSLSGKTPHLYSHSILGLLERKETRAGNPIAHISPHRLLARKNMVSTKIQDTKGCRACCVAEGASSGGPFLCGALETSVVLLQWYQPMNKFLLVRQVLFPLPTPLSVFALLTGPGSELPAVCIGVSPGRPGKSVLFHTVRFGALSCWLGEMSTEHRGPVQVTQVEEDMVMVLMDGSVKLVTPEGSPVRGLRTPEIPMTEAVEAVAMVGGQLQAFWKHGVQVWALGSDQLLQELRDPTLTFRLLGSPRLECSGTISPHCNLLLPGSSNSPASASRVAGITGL
# CD28 = CD28 expression on CD4+ T cells of stimulated PBMCs; assay type: cell-based, human; settings: PBMCs + anti-CD3, 72 hrs
# Procedure: FIG. 7: RSKAKNPLYR-(2Adod)4-NH2 increases CD28 levels on T cells. […] Data presented indicates the mean respective expression in CD4+ T cell populations in response to peptide treatment, +/−SEM, n=4. Data was analysed by two-way ANOVA with Dunnett's post test, *P<0.05, **P<0.01, ***P<0.001, ****P<0.0001. *** indicates all bars under the line are significant compared to vehicle. Red dotted line indicates unstimulated PBMC expression.
# Because full activation of MAP kinases requires the presence of the TCR co-receptor, the present inventors sought to examine the expression of CD28 on T cells.
# exhausted CD4+ cells = assay: IL-2 from exhausted CD4+ cells upon restimulation (MBP-Tracker mouse splenocytes); assay type: cell-based, mice; settings: 72 hrs, multiplex immunoassay
# Procedure: Supernatants were collected after 72 hrs in culture to assess IL-2 cytokine production measured by multiplex immunoassay. Data are presented as mean+/−SEM from 4 biological replicates normalised to vehicle control (0). **P<0.01, Non-parametric one way ANOVA (Freidman) with Dunns post-test was used to compare groups at each dose level to lowest level (0.08 μM).
# T examine the ability of peptides comprising D-amino acids induce low levels of IL-2, IL-2 expression on exhausted CD4+ cells upon restimulation was examined. In brief, a single spleen per experiment was removed from MBP-Tracker mice and processed to generate a single cell suspension of splenocytes. Cells were resuspended at 3×10^6/mL and stimulated with WT-MBP (control, non-exhausted cells) or APL-MBP (to generate exhausted cells). Cells were stimulated for 72 hr. Following stimulation, T cells were purified by ficoll density gradient and subsequently re-plated at 2×10^6/mL in 20U/mL IL-2 for four days. After 4 days, cells were collected, resuspended (4×10^5/mL, final 2×10^4 per well) and restimulated using irradiated APC (from B10PL×C57BL/6 mice, 4×10^6/mL, final 2×10^5 per well) a single dose of APL-MBP peptide, together with test or reference substance or appropriate controls for 72 hrs. […]
# B16-F10 melanoma cells = assay: SRB proliferation assay, B16-F10 melanoma cells; assay type: cell-based; settings: 2.5 μM, 72 h
# Procedure: (§1) In addition, doxorubicin at 2.5 μM was tested in 5 replicate wells as a positive control. Cells were cultured for a further 72 h in the presence of drug or control before the cell culture medium was removed and the attached cells fixed in ice-cold trichloroacetic acid. […] Each experiment was performed on two independent occasions (biological replicates) and data were analysed in GraphPad Prism 9 using non-linear fit of log (inhibitor) versus response.
# Lewis Lung Cancer cells = assay: SRB proliferation assay, Lewis Lung Cancer cells; assay type: cell-based; settings: 2.5 μM, 72 h
# Procedure: as §1
molecule,measurement,setting,value
COc1cc(-c2nn([C@H]3CC[C@H](N4CCN(C(C)=O)CC4)CC3)c3ncnc(N)c23)ccc1NC(=O)c1cc2ccccc2n1C [A-770041],"enhancement of IL-2 production, Lck inhibitor compared with IK14004",IL-2,ten-fold greater enhancement
same,increase in IL-2 secretion above vehicle control,IL-2; A-770041 at 100 nM,300%
RSKAKNPLYR [IK14000],effect on Lck activity,Lck,neither the 10 mer RSKAKNPLYR (designated IK14000) nor 4 lipidic peptide residues designated IK00041 activated Lck
same,effect on c-Src activity,c-Src,inhibits c-Src
"CCCCCCCCCCC(NC(=O)C(CCCCCCCCCC)NC(=O)C(CCCCCCCCCC)NC(=O)C(CCCCCCCCCC)NC(=O)[C@H](CCCNC(=N)N)NC(=O)[C@H](Cc1ccc(O)cc1)NC(=O)[C@H](CC(C)C)NC(=O)[C@@H]1CCCN1C(=O)[C@H](CC(N)=O)NC(=O)[C@H](CCCCN)NC(=O)[C@H](C)NC(=O)[C@H](CCCCN)NC(=O)[C@H](CO)NC(=O)[C@@H](N)CCCNC(=N)N)C(N)=O (some centres unmarked) [IK14004, RSKAKNPLYR-(2Adod)4-NH2] (H-RSKAKNPLYR[ξGly(decyl)][ξGly(decyl)][ξGly(decyl)][ξGly(decyl)]-NH2; N-terminus assumed)",tolerability of doses,[1],Well tolerated
"RSKAKNPLYR-(2Adod)3-NH2 (RSKAKNPLYR-{2Adod-2Adod-2Adod-NH2}) [IK14003, … conjugated to three 2-amino dodecanoic acid residues]",effect on c-Src activity,c-Src,stimulated c-Src activity above 1 uM
rskaknplyr-(2Adod)4-NH2 ([dR][dS][dK][dA][dK][dN][dP][dL][dY][dR]-{2Adod-2Adod-2Adod-2Adod-NH2}) […-(2Adod)4-NH2 comprising D amino acids],effect on MAP4K1 (HPK1) kinase activity,MAP4K1 (HPK1),inhibits
same,CD28 levels,CD28,increased CD28 levels
same,IL-2 expression on exhausted CD4+ cells upon restimulation,exhausted CD4+ cells,increases IL-2 expression
COc1cccc2c1C(=O)c1c(O)c3c(c(O)c1C2=O)C[C@@](O)(C(=O)CO)C[C@@H]3O[C@H]1C[C@H](N)[C@H](O)[C@H](C)O1 [doxorubicin],"kill in vitro, B16-F10 melanoma cells",B16-F10 melanoma cells,100%
same,"kill in vitro, Lewis Lung Cancer cells",Lewis Lung Cancer cells,100%
